Data published in publication PMC3374801, “Artemisinin Inhibits Chloroplast Electron Transport Activity: Mode of Action” (PLoS ONE, 2012).
“Also recorded” adds a separate entry of the source.

Key:
spinach thylakoids = assay: In vitro effect of artemisinin on FeCN supported O2 evolution (electron transport) of isolated thylakoids; type: biochemical, spinach (Beta palonga); conditions: for artemisinin-mediated inhibition of electron transport: 744 µM
Experimental: Thylakoids were isolated from spinach and rice leaves following with some modifications. Leaves were homogenized in cold grinding buffer [50 mM tricine-NaOH (pH 7.5), 400 mM sucrose, 5 mM MgCl2 and 5 mM KCl]. The homogenate was filtered through Miracloth and the filtrate was centrifuged at 5000×g for 5 min. The chloroplast pellet was washed in 5 mM tricine-NaOH (pH 7.5) buffer containing, 400 mM sucrose and 2 mM MgCl2 and centrifuged at 300×g for 1 min. The supernatant was re-centrifuged at 5000×g for 5 min. The pellet (thylakoids) was finally taken up in a minimal volume of suspending buffer [20 mM tricine-NaOH (pH 7.5), 100 mM sucrose and 5 mM MgCl2]. Chlorophyll concentration in methanolic extract was measured spectrophotometrically.
Photosystem II, PSI and whole chain (PSII plus PSI) catalyzed electron transport activities were measured as oxygen (O2) evolution or uptake in a Clarke type O2 electrode assembly (Hansatech) at 22±1°C using site-specific artificial electron acceptors, donors, and inhibitors, [26]. The light was rate-saturating (500 µE m^−2 s^−1). Phosphorylating electron transport was measured with addition of 1 mM ADP and 5 mM K2HPO4 (iP) to basal electron transport components (25 mM hepes-NaOH (pH-7.5), 100 mM sucrose, 5 mM MgCl2 and 20 µg Chl. ml^−1). NH4Cl and GS were used at a final concentration of 5 mM and 10 µM respectively as and when required. The whole chain electron flow was assayed in presence of 2 mM FeCN as terminal electron acceptor of PSI. pBQ and DQ (400 µM) were used to measure PSII catalyzed electron flow. To measure PSI catalyzed electron flow, DCIPH2 (1 mM DCIP plus 2 mM ascorbate) was used as electron donor to cytochrome b6/f region and 1 mM MV as transient electron acceptor. The PSI reaction mixture additionally contained 2 mM sodium azide (catalase inhibitor) and 10 µM DCMU (PSII inhibitor).

[1] = system: whole chain (H2O to FeCN) electron flow in thylakoids; assay: Whole chain (H2O to FeCN) electron flow in thylakoids isolated from leaves of sprayed plants; type: in vivo, Rice (Oryza sativa var. Safari)
Experimental: (§1) Twenty one day old rice plants were sprayed with artemisinin twice at a 24 h interval. One mililiter of 74.4 mM artemisinin in 1% (V/V) DMSO, 0.1% (V/V) TWEEN-20 was diluted 100 fold with water and used to treat 40 plants (∼1.86 µmol of artemisinin/plant). Control plants were sprayed with the same solution without artemisinin. The 4th (quaternary) leaf was harvested 20 h after the 2nd spray and used for all experiments. The individual effect of the surfactant and DMSO-plus-surfactant was first evaluated against water control. […]
(§2) Thylakoids were isolated from spinach and rice leaves following with some modifications. […] Chlorophyll concentration in methanolic extract was measured spectrophotometrically.
(§3) Photosystem II, PSI and whole chain (PSII plus PSI) catalyzed electron transport activities were measured as oxygen (O2) evolution or uptake in a Clarke type O2 electrode assembly (Hansatech) at 22±1°C using site-specific artificial electron acceptors, donors, and inhibitors, [26]. […] Phosphorylating electron transport was measured with addition of 1 mM ADP and 5 mM K2HPO4 (iP) to basal electron transport components (25 mM hepes-NaOH (pH-7.5), 100 mM sucrose, 5 mM MgCl2 and 20 µg Chl. ml^−1). […]

[2] = system: lettuce and annual wormwood; parameters: method as in earlier work; conditions: 33 µM; cited from earlier work
rice leaves [3] = assay: Slow Chl. a fluorescence kinetics in leaves of artemisinin sprayed plants; type: in vivo, Rice (Oryza sativa var. Safari); conditions: dark adapted 20 min
Experimental: (§4) Twenty one day old rice plants were sprayed with artemisinin twice at a 24 h interval. One mililiter of 74.4 mM artemisinin in 1% (V/V) DMSO, 0.1% (V/V) TWEEN-20 was diluted 100 fold with water and used to treat 40 plants (∼1.86 µmol of artemisinin/plant). Control plants were sprayed with the same solution without artemisinin. The 4th (quaternary) leaf was harvested 20 h after the 2nd spray and used for all experiments. The individual effect of the surfactant and DMSO-plus-surfactant was first evaluated against water control. Since no effect was obtained with these variations, we have routinely used the DMSO plus the surfactant sprayed leaves as control against artemisinin treated leaves and in figures the same has been depicted as DMSO (control). The room temperature Chl. a fluorescence technique was used to study the photosynthetic activity in intact leaf samples. The fast Chl. a transients (O-J-I-P) in millisecond (ms) time span was studied with plant efficiency analyzer (Handy PEA fluorimeter) following Strasser et al., while the relative thylakoid electron transport, membrane energization and carbon fixation activities were evaluated from slow fluorescence transients, obtained using FMS2 instrument (Hansatech) as per the detail outlined in Baker. The readouts from Handy PEA were analyzed using biolyzerhp3 software.

yeast cells = system: yeast cells; parameters: method as in PMID 16170412; conditions: 80 µM; cited from earlier work
rice leaves [4] = assay: Fast Chl. a (O-J-I-P) fluorescence transient in leaves of artemisinin sprayed plants; type: in vivo, Rice (Oryza sativa var. Safari)
Experimental: as §4

[5] = system: PQH2 pool (PSII catalyzed electron flow from water to DQ); assay: Kinetics of DQ supported electron transport rate in thylakoids from treated leaves; type: in vivo; conditions: control versus treated thylakoids
Experimental: as §1, §2, §3

PSII = target: T1, PSII (Oryza sativa subsp. japonica, UniProt P0C434); assay: PSII (H2O to pBQ) catalyzed electron flow in thylakoids isolated from leaves of sprayed plants; type: in vivo, Rice (Oryza sativa var. Safari); conditions: thylakoids of treated rice leaves
T1 construct: Thylakoids were isolated from spinach and rice leaves; from tissue; host or cells: thylakoid membranes from the 4th leaf of 21-day-old rice plants
Experimental: as §1, §2, §3

rice plant = assay: Long term effect of artemisinin administration to rice plant; type: in vivo; conditions: 5 consecutive alternate day sprays
Experimental: Supplementary file pone.0038942.s005.doc: Figure S5 Long term effect of artemisinin administration to rice plant. The plants were treated with artemisinin for 5 consecutive alternate day sprays. […] (DOC) Click here for additional data file.

[6] = system: lettuce, redroot pigweed, pitted morning glory, annual wormwood and common purslane; parameters: method as in earlier work; conditions: 33 µM; cited from earlier work
Chl. pigment synthesis = assay: Chlorophyll quantification in sprayed plants; type: in vivo, Rice (Oryza sativa var. Safari); conditions: treated versus control leaves
Experimental: Twenty one day old rice plants were sprayed with artemisinin twice at a 24 h interval. One mililiter of 74.4 mM artemisinin in 1% (V/V) DMSO, 0.1% (V/V) TWEEN-20 was diluted 100 fold with water and used to treat 40 plants (∼1.86 µmol of artemisinin/plant). Control plants were sprayed with the same solution without artemisinin. The 4th (quaternary) leaf was harvested 20 h after the 2nd spray and used for all experiments. The individual effect of the surfactant and DMSO-plus-surfactant was first evaluated against water control. Since no effect was obtained with these variations, we have routinely used the DMSO plus the surfactant sprayed leaves as control against artemisinin treated leaves and in figures the same has been depicted as DMSO (control). Thylakoids were isolated from spinach and rice leaves following with some modifications. Leaves were homogenized in cold grinding buffer [50 mM tricine-NaOH (pH 7.5), 400 mM sucrose, 5 mM MgCl2 and 5 mM KCl]. The homogenate was filtered through Miracloth and the filtrate was centrifuged at 5000×g for 5 min. […] Chlorophyll concentration in methanolic extract was measured spectrophotometrically. Supplementary file pone.0038942.s002.doc: Figure S2 Chlorophyll quantification in plants sprayed with DMSO and artemisinin. […]

PSI = PSI (DCIPH2 to MV) catalyzed electron flow in thylakoids isolated from leaves of sprayed plants; type: in vivo, Rice (Oryza sativa var. Safari); conditions: thylakoids of treated rice leaves
Experimental: as §1, §2, §3

## C[C@@H]1CC[C@H]2[C@@H](C)C(=O)O[C@@H]3O[C@@]4(C)CC[C@@H]1[C@]32OO4 [Artemisinin]
Spinach thylakoids; 744 µM artemisinin, basal (loosely coupled) thylakoids, relative to DMSO control
  inhibition of control activity (FeCN supported electron transport / O2 evolution): 65–70%
Spinach thylakoids; phosphorylating condition (plus ADP and iP)
  artemisinin-mediated inhibition of electron transport: 45–50%
Spinach thylakoids; phosphorylating condition, in presence of NH4Cl
  artemisinin-mediated inhibition of electron transport: 15–20%
Spinach thylakoids; phosphorylating condition, with GS
  artemisinin-mediated inhibition of electron transport: 20–25%
[1]; thylakoids of treated rice leaves (~1.86 µmol/plant)
  reduction of FeCN supported whole chain electron transport rate as compared to control: 80–85%
[1]; thylakoids of treated rice leaves, FeCN as acceptor
  inhibitory affect in loosely coupled (basal) versus chemically uncoupled (NH4Cl or GS) thylakoids: persistent to a comparable extent
[2]
  effect on germination: inhibited the germination
Rice leaves [3]
  Rfd (fluorescence decline ratio from 'p' to 't' level): 0.08±0.006
Yeast cells
  effect on growth of yeast cells: arrests the growth
Rice leaves [4]; from DCMU (20 µM) sensitivity of the fluorescence induction curves
  effect on electron flow from water to QA: insensitive
Rice leaves [4]; leaves of sprayed rice plants
  effect on O-J-I-P fluorescence transient: disappearance of the FI – FP transient
[5]
  DQ supported electron transport rate, times higher in the absence of artemisinin: 5 times
PSII
  reduction in rate of pBQ supported PSII catalyzed electron transport: 65–70%
Rice plant
  long term effect on plants: death of plant; also recorded: complete death of the plants
[6]
  effect on growth of roots and shoots: inhibited
Chl. pigment synthesis
  effect on Chl. pigment synthesis (Chl. concentration): no affect on the Chl. pigment synthesis
PSI
  reduction of PSI catalyzed electron flow from DCIPH2 to MV as compared to control: 10–15%
